The structures appear in SMILES notation.

The target in this data set is ATP-dependent translocase ABCB1 (Homo sapiens, UniProt P08183). In words: TP_TRANSPORTER: increase in Rhodamine 123 intracellular accumulation (R123: 10 uM, Tamolarizine: 10 uM) in K562/DX cellsR cells, FACScan. The note with it: k562/dxr. In kind it is functional, cell-based.
Chain of ATP-dependent translocase ABCB1 (P08183 whole entry): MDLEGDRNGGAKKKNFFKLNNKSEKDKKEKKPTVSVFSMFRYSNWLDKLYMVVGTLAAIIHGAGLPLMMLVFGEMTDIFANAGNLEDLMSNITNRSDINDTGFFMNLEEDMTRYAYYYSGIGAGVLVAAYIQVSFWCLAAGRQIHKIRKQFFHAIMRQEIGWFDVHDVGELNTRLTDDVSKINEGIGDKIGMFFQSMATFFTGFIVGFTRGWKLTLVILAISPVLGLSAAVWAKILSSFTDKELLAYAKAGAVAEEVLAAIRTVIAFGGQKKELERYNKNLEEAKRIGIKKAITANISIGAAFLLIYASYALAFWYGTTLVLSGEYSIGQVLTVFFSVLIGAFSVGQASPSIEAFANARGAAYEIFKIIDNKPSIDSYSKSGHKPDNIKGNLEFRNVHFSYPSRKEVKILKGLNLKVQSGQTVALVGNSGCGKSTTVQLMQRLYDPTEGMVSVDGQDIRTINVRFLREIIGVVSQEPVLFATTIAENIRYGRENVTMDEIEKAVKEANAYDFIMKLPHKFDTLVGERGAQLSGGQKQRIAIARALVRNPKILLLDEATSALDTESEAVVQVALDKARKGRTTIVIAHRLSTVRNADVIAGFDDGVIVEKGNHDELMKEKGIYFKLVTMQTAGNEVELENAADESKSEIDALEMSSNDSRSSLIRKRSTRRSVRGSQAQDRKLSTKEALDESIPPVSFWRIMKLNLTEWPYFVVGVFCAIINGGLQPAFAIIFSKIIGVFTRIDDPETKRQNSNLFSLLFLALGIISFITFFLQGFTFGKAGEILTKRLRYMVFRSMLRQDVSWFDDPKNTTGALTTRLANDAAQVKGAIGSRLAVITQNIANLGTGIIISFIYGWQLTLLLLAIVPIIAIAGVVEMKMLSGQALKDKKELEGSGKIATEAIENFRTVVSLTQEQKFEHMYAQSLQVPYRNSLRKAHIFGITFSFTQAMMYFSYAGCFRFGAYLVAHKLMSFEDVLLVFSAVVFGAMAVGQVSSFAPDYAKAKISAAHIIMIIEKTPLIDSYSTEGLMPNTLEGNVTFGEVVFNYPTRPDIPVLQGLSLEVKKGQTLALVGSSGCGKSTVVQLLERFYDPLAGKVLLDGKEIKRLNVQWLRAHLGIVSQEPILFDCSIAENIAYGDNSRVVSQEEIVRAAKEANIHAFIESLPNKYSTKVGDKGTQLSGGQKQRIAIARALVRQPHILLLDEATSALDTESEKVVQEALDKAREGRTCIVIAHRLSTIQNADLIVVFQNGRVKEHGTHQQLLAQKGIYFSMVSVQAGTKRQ

As for `COc1ccc(C(O)CN2CCN(C(c3ccccc3)c3ccccc3)CC2)cc1OC` (stereo unspecified) [TAMOLARIZINE], the Activity result is “inhibitor [+]”.
